# Values of other authors in patent US6335361B1, “Method of treating benign forgetfulness” (Juvenon Inc., priority 1999, dated 2002).
# Read-outs that look alike come from different tables or passages of the source.
# Tests used:
# [1] = test system: mitochondria
# [2] = test system: oxidative phosphorylation in skeletal muscles and brains; conditions: patients with mitochondrial cytopathies due to enzyme defects
# [3] = test system: rats
# [4] = test system: mice; conditions: male mice, life-long supplementation
# [5] = test system: striatal nerves; conditions: mice, Q10 diet four weeks before and one week after MPTP
# [6] = test system: human plasma LDL phospholipids; conditions: healthy Finnish men and women, Q10 supplementation
# [7] = test system: mitochondria; conditions: through action in the mitochondria
# [8] = daily supplements up to 200 mg for 6-12 months and 100 mg daily for up to 6 y
# [9] = woman deficient in Q10, 150 mg/kg
# [10] = test system: cardiac tissue
# [11] = test system: aged rats
# [12] = test system: oxidant production; conditions: carnitine supplementation
# [13] = men over 60, 5 days
# [14] = older adults 67-80 years, 8 weeks
# [15] = test system: phosphocreatine (PCr)
# [16] = test system: human lymphocytes
compound,measurement,setting,value
"CC(=O)O[C@H](CC(=O)[O-])C[N+](C)(C)C [ALC, acetyl-L-carnitine]","age-related decrease in cardiolipin, mtDNA transcription and membrane potential",[1],reverse
same,age-related dysfunction of carnitine-acetyl-carnitine exchange across the inner mitochondrial membrane,[1],slow or reverse
C[N+](C)(C)C[C@H](O)CC(=O)[O-] [L-carnitine],"age-related decrease in cardiolipin, mtDNA transcription and membrane potential",[1],reverse
same,age-related dysfunction of carnitine-acetyl-carnitine exchange across the inner mitochondrial membrane,[1],slow or reverse
"COC1=C(OC)C(=O)C(C/C=C(\C)CC/C=C(\C)CC/C=C(\C)CC/C=C(\C)CC/C=C(\C)CC/C=C(\C)CC/C=C(\C)CC/C=C(\C)CC/C=C(\C)CCC=C(C)C)=C(C)C1=O [Q10, Coenzyme Q10]",oxidative phosphorylation in skeletal muscles and brains,[2],marked improvement
same,"Q10 levels in kidney, heart and brain",[3]; Q10 supplementation,not affected
same,lifespan,"[3]; male rats, life-long supplementation",did not prolong or shorten
same,plasma and liver levels,[3]; supplemented rats,2.6-8.4 times higher
same,lifespan,[4],did not prolong or shorten
same,"dopamine, higher than control diet",[5],37%
same,more dense neurons than control diet,[5],62%
same,peroxyl radical-trapping capacity,[6],doubled
same,"programmed cell death, or apoptosis",[7],appears to block
same,adverse effects,[8],No important adverse effects
same,clinical response,[9],rapidly improved
same,effect on doxorubicin-induced oxidant production and mtDNA deletions,[10]; cardiac tissue,blocks the effects of doxorubicin
"O=C(O)CCCC[C@@H]1CCSS1 [R-α-alipoic acid, R-α-lipoic acid]",ambulatory activity of aged rats,[11]; aged rats,triple
same,age-related decline in mitochondrial membrane potential,"[11]; rat, in vivo",restore
same,age-related decrease in oxygen consumption,"[11]; rat, in vivo",reverse
same,age-related increase in oxidants,"[11]; rat, in vivo",significantly lower
same,glutathione and ascorbic acid levels,"[11]; rat, in vivo",to youthful levels
C[N+](C)(C)CC(O)CC(=O)[O-] (stereo not drawn) [carnitine],cell antioxidants,[12],decreased cell antioxidants markedly
same,increase of oxidant production,[12],30%
CN(CC(=O)O)C(=N)N [creatine],isokinetic performance and body mass,[13],only small increases
same,isometric strength,[13],no effect
same,"1- and 12-repetitions maxima, effect of creatine supplementation",[14],no beneficial effect
same,time to exhaustion,[15]; both groups combined,increased
same,increase of resting PCr,"[15]; middle-aged group (50-year-olds), P<0.05",30%
same,mean initial PCr resynthesis rate,"[15]; middle-aged group, P<0.05",increased significantly
same,increase of resting PCr,"[15]; young group (30-year-olds), P<0.05",15%
same,safety,1.5 g-25 g/day for at least a year,safe
same,adverse effects,"athletes, up to 75 grams a day for years, aside from weight gain",without known adverse effects
same,skeletal muscle strength and endurance,"older individuals (40-73), 20 g/day, one week",increased
COc1cccc2c1C(=O)c1c(O)c3c(c(O)c1C2=O)C[C@@](O)(C(=O)CO)C[C@@H]3O[C@H]1C[C@H](N)[C@H](O)[C@H](C)O1 [doxorubicin],mitochondrial oxidant production,[10]; doxorubicin by itself,stimulates
same,mtDNA deletions in cardiac tissue,[10]; doxorubicin by itself,marked increase
COc1c(O)c(C)c(C/C=C(\C)CC/C=C(\C)CC/C=C(\C)CC/C=C(\C)CC/C=C(\C)CC/C=C(\C)CC/C=C(\C)CC/C=C(\C)CC/C=C(\C)CCC=C(C)C)c(O)c1OC [ubiquinol-10],oxidative damage to DNA of human lymphocytes,[16],appears to protect
